The values below come from patent US8445510B2, “Fused bicyclic kinase inhibitors” (OSI Pharmaceuticals, LLC, priority 2011, dated 2013).

SMILES strings stand for the structures.

One assay concerns the target T1, Aurora B (Homo sapiens, UniProt Q96GD4).
T1 construct: HT-29 cells grown in complete growth media
The experiment in a line: Aurora B cell mechanistic assay (HT-29), phospho-Histone H3 (Ser10) ELISA. The assay is classed as cell-based. The settings on record: HT-29 cell line; inhibition of phospho-Histone H3 (Ser10); at least duplicate experiments (italicized if single experiment); read-out: Aurora B mech IC50. In a few lines:
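HT-29 cells treated 1 h at 37 °C with serially diluted compound, then 100 nM Calyculin A added for 30 min. Lysates assayed by phospho-Histone H3 (Ser10) ELISA at 450 nm; normalized to DMSO (100%) and a reference Aurora B inhibitor (full inhibition); IC50 by four-parameter fit.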
A general note: An ELISA detects its analyte on a solid surface through an enzyme-linked reagent.

The subject of a further assay is Karpas-299 cells. The assay can be described thus: Karpas-299 cell proliferation assay (CellTiter-Glo). The class given is cell-based. The conditions noted are these: Homo sapiens, 72 h; Karpas-299 cell line (NPM-ALK); 3 days incubation; at least duplicate experiments; read-out: Prolif. IC50. For orientation: Cellular ATP, detected with luciferase, serves as a proxy for viable cell number.

T1 sequence (Q96GD4 whole entry): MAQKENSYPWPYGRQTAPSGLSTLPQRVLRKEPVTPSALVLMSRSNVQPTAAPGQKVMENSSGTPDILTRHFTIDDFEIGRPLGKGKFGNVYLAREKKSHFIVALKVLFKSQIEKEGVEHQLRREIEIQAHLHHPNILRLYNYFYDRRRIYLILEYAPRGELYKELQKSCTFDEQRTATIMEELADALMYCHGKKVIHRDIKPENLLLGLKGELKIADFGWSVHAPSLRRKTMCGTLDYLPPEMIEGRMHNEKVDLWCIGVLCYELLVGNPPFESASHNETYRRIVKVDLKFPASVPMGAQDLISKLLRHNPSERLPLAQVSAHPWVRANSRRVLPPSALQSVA

`[2H][C@@](C)(c1c(OC)ccc(F)c1Cl)c1c[nH]c2ncc(-c3cnn([C@H]4CC[C@H](O)CC4)c3C)cc12` [Example 110, trans-4-(4-{3-[(1S)-1-(2-Chloro-3-fluoro-6-methoxyphenyl)(1-^2H)ethyl]-1H-pyrrolo[2,3-b]pyridin-5-yl}-5-methyl-1H-pyrazol-1-yl)cyclohexanol]: the IC50 was > 1000 nM on Aurora B and ≤ 50 nM with Karpas-299 cells.

For the molecule `[2H]C([2H])([2H])[C@H](c1c(OC)ccc(F)c1Cl)c1c[nH]c2ncc(-c3cnn([C@H]4CC[C@H](O)CC4)c3C)cc12` [Example 111, trans-4-(4-{3-[(1S)-1-(2-Chloro-3-fluoro-6-methoxyphenyl)(2,2,2-^2H3)ethyl]-1H-pyrrolo[2,3-b]pyridin-5-yl}-5-methyl-1H-pyrazol-1-yl)cyclohexanol], the values for the IC50 at Aurora B and in the assay with Karpas-299 cells were > 1000 nM and ≤ 50 nM, respectively.

In general, IC50 refers to the concentration needed to halve the response being measured.
